Assay results published in ChEMBL document CHEMBL6177951, “Synthesis and anti-MRSA activity of quaternized small molecule antimicrobial peptide mimics based on norharmane” (Eur J Med Chem, 2025).
The source made the active and inactive calls. The calls are words filed in the database; no cut-off is given here.

Tests used:
Staphylococcus aureus [1] = test: In vivo antibacterial activity against methicillin-resistant Staphylococcus aureus infected in female Kunming mouse skin infection model assessed as reduction in bacterial load measured after 48 hrs; format: functional, organism-based; settings: dose 5-20 mg/kg
Staphylococcus aureus [2] = test: In vivo antibacterial activity against methicillin-resistant Staphylococcus aureus infected in female Kunming mouse skin infection model assessed as reduction in inflammatory cells at 5 to 20 mg/kg measured after 48 hrs by H and E staining based analysis; format: functional, organism-based; settings: dose 5-20 mg/kg
Staphylococcus aureus [3] = test: Antibacterial activity against methicillin-resistant Staphylococcus aureus clinical isolate M-15 incubated for 14 hrs by two-fold serial dilution method; format: functional
Calf thymus DNA [4] = test: Binding affinity to calf thymus DNA assessed as dissociation constant by ITC assay; format: nucleic-acid assay, Bos taurus
Staphylococcus aureus [5] = test: Antibacterial activity against Staphylococcus aureus ATCC 33591 assessed as log reduction in bacterial growth at 1 times MIC measured at 6 hrs by time-kill kinetic assay; format: functional
Staphylococcus aureus [6] = test: Antibacterial activity against methicillin-resistant Staphylococcus aureus assessed as change in cell surface zeta potential at 256 ug/ml incubated for 8 hrs; format: functional, organism-based; settings: dose 256.0 µg/ml
Staphylococcus aureus [7] = test: Antibacterial activity against methicillin-resistant Staphylococcus aureus clinical isolate M-16 incubated for 14 hrs by two-fold serial dilution method; format: functional
[8] = Toxicity in female Kunming mouse assessed as pathological changes in kidney at 500 to 2000 mg/kg, sc measured after 7 days by H and E staining based analysis; format: organism-based; settings: in vivo, 168 h, dose 500-2000 mg/kg, time 7 day
Staphylococcus aureus [9] = test: Bactericidal activity against Staphylococcus aureus ATCC 33591 assessed as eradication of bacteria at 4 times MIC measured at 4 hrs by time-kill kinetic assay relative to control; format: functional
[10] = Toxicity in female Kunming mouse assessed as inflammatory response in liver at 500 to 2000 mg/kg, sc measured after 7 days by H and E staining based analysis; format: organism-based; settings: in vivo, 168 h, dose 500-2000 mg/kg, time 7 day
Calf thymus DNA [11] = test: Binding affinity to calf thymus DNA assessed as change in Gibbs free energy at 3 uM by ITC assay; format: nucleic-acid assay; settings: Bos taurus
Staphylococcus aureus [12] = test: Antibacterial activity against methicillin-resistant Staphylococcus aureus clinical isolate M-18 incubated for 14 hrs by two-fold serial dilution method; format: functional
[13] = Acute toxicity in female Kunming mouse assessed as aberrant appearance at 500 to 2000 mg/kg, sc measured after 7 days; format: organism-based; settings: in vivo, 168 h, dose 500-2000 mg/kg, time 7 day
Staphylococcus aureus [14] = test: Induction of morphological changes in methicillin-resistant Staphylococcus aureus assessed as appearance of rough cell surface at 0.5 ug/ml incubated for 6 hrs by SEM analysis; format: functional, organism-based; settings: dose 0.5 µg/ml
Staphylococcus aureus [15] = test: Antibacterial activity against methicillin-resistant Staphylococcus aureus assessed as reduction in bacterial growth in presence of 16 ug/ml peptidoglycan incubated for 0.5 hrs by exogenous addition assay; format: functional, organism-based
[16] = Hemolytic activity in sheep RBC assessed as hemolysis at 256 times MIC incubated for 1 hrs relative to control; format: toxicity, cell-based, Ovis aries, Erythrocyte; settings: sheep red blood cells, read-out: Activity
Staphylococcus aureus [17] = test: In vivo antibacterial activity against methicillin-resistant Staphylococcus aureus infected in female Kunming mouse skin infection model assessed as recovery of dorsal surface at 5 to 20 mg/kg measured after 48 hrs; format: functional, organism-based; settings: dose 5-20 mg/kg
Cell membrane [18] = test: Induction of cell membrane integrity in methicillin-resistant Staphylococcus aureus assessed as appearance of blue and red fluorescence at 0.25 ug/ml incubated for 8 hrs by DAPI/PI staining based fluorescence microscopic analysis; format: subcellular; settings: dose 0.25 µg/ml
Lipoteichoic acid = test: Displacement of BODIPY-TR-cadaverine from Staphylococcus aureus LTA assessed as increase in fluorescence intensity at 2 ug/ml incubated for 0.5 hrs by fluorescence based analysis relative to control; settings: dose 2.0 µg/ml
Staphylococcus aureus [19] = test: Antibacterial activity against methicillin-resistant Staphylococcus aureus clinical isolate M-17 incubated for 14 hrs by two-fold serial dilution method; format: functional
Staphylococcus aureus [20] = test: Antibacterial activity against Staphylococcus aureus ATCC 33591 assessed as inhibition of bacterial growth at 1 to 2 times MIC measured after 24 hrs by growth kinetic assay; format: functional, organism-based
Staphylococcus aureus [21] = test: Antibacterial activity against methicillin-resistant Staphylococcus aureus ATCC 43300 assessed as inhibition of bacterial growth incubated for 14 hrs by two-fold serial dilution method; format: functional
Cell membrane [22] = test: Induction of cell membrane permeability in methicillin-resistant Staphylococcus aureus assessed as increase in protein leakage at 2 ug/ml incubated for 8 hrs by Bradford assay; format: subcellular; settings: dose 2.0 µg/ml
[23] = Toxicity in female Kunming mouse assessed as pathological changes in liver at 500 to 2000 mg/kg, sc measured after 7 days by H and E staining based analysis; format: organism-based; settings: in vivo, 168 h, dose 500-2000 mg/kg, time 7 day
Staphylococcus aureus [24] = test: Antibacterial activity against Staphylococcus aureus ATCC 29213 assessed as inhibition of bacterial growth incubated for 14 hrs by two-fold serial dilution method; format: functional
Staphylococcus aureus [25] = test: Antibacterial activity against methicillin-resistant Staphylococcus aureus clinical isolate M-20 incubated for 14 hrs by two-fold serial dilution method; format: functional
Staphylococcus aureus [26] = test: Antibacterial activity against methicillin-resistant Staphylococcus aureus incubated for 6 hrs in presence of 10 to 60% sheep plasma; format: functional, organism-based
Staphylococcus aureus [27] = test: Antibacterial activity against methicillin-resistant Staphylococcus aureus ATCC 33591 assessed as inhibition of bacterial growth incubated for 14 hrs by two-fold serial dilution method; format: functional
[28] = Toxicity in female Kunming mouse assessed as inflammatory cell infiltration at 5 to 20 mg/kg, sc measured after 48 hrs by H and E staining based analysis; format: organism-based; settings: in vivo, dose 5-20 mg/kg
[29] = Hemolytic activity in sheep RBC assessed as hemolysis at 1024 ug/ml incubated for 1 hrs relative to control; format: toxicity, cell-based, Ovis aries, Erythrocyte; settings: sheep red blood cells, at 1024 µg/mL, read-out: Activity

## C[n+]1ccc2c3ccccc3n(CCCCCCCCCCCn3c4ccccc4c4cc[n+](C)cc43)c2c1.[I-].[I-]
Staphylococcus aureus [1]
  Activity: Dose-dependent-effect
Staphylococcus aureus [2]
  Activity: Active
Staphylococcus aureus [3]
  MIC: 0.5 µg/mL
Calf thymus DNA [4]
  Kd: 4.52 µM
Staphylococcus aureus [5]
  Activity: 3.95 log10CFU/ml
Staphylococcus aureus [6]
  Activity: Active
Staphylococcus aureus [7]
  MIC: 0.5 µg/mL
[8]
  Activity: Non-toxic
Staphylococcus aureus [9]
  Activity: 100%
[10]
  Activity: Non-toxic
Calf thymus DNA [11]
  deltaG: -7.29 kcal/mol
Staphylococcus aureus [12]
  MIC: 0.5 µg/mL
[13]
  Activity: Non-toxic
Staphylococcus aureus [14]
  Activity: Active
Staphylococcus aureus [15]
  Activity: Active
[16]
  hemolysis at 1 h, 256 times MIC: < 10%
Staphylococcus aureus [17]
  Activity: Active
Cell membrane [18]
  Activity: Active
Lipoteichoic acid
  Activity: 31.7%
Staphylococcus aureus [19]
  MIC: 0.5 µg/mL
Staphylococcus aureus [20]
  Activity: Active
Staphylococcus aureus [21]
  MIC: 1 µg/mL
Cell membrane [22]
  Activity: 27.8 µg/mL
[23]
  Activity: Non-toxic
Staphylococcus aureus [24]
  MIC: 1 µg/mL
Staphylococcus aureus [25]
  MIC: 0.5 µg/mL
Staphylococcus aureus [26]
  Activity: Active
Staphylococcus aureus [27]
  MIC: 0.25 µg/mL
[28]
  Activity: Non-toxic
[29]
  hemolysis at 1 h, 1024 ug/ml: 26.4%
